Assays:
DmOR83b = target: T1, DmOR83b (Drosophila melanogaster, UniProt Q9VNB5); assay: whole-cell patch clamp, HEK cells transiently transfected with DmOR83b; type: cell-based; details: HEK cells expressing DmOR83b, −60 mV
T1 construct: expressed in transfected cells; host or cells: Flp-In T-REx 293 (HEK), transient, pCI vector, GFP co-transfected
T1 sequence (Q9VNB5 1-486): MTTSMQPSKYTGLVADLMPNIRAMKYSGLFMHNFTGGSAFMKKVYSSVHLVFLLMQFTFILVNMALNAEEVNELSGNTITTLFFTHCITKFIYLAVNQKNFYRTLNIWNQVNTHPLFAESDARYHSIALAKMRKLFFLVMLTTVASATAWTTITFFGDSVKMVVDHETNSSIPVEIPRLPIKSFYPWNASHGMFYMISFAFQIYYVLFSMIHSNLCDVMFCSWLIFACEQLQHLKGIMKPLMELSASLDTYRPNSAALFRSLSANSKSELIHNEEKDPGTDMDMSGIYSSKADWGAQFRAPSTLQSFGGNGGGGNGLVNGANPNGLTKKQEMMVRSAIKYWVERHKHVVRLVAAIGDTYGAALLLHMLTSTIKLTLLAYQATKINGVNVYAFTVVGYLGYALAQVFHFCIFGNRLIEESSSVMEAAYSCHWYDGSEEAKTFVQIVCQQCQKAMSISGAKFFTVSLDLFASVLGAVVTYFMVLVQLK
From the text: For transient transfections, ORs were cloned into pCI (Promega) and transfected into Flp-In™ T-REx™293 cell lines (Invitrogen) with Fu GENE6 (Roche). For the creation of stable cell lines, a cell culture expression vector capable of expressing AgORco in conjunction with a conventional OR, pcDNA5/FRT/TO (Invitrogen) was modified to create two individual expression cassettes each under the control of a separate CMV/TetO2 promoter and a BGH poly-adenylation signal. Cells (as above) were transfected with the modified pcDNA5 plasmid along with POG44 (a Flp recombinase expression plasmid) to facilitate site-specific recombination. Stable cell lines were selected using Hygromycin B (Invitrogen). Cells were maintained in DMEM (Invitrogen) supplemented with 10% Tetracycline-free FBS (HyClone) and 15 μg/ml Blasticidin. […] Baseline readings were taken for 20 s before automated addition of compound previously diluted in DMSO and assay buffer. […]
Currents from OR-expressing HEK293 cells were amplified with an Axopatch 200b Amplifier (Axon Instruments) and digitized through a Digidata 1322A (Axon Instruments). Electrophysiological data was recorded and analyzed using pCLAMP 10 (Axon Instruments). […]

[1] = target: T2, rat transient receptor potential vanilloid 1 (rTRPV1) (Rattus norvegicus, UniProt O35433); assay: whole-cell patch clamp, HEK cells stably expressing rTRPV1; type: cell-based
T2 construct: expressed in transfected cells
T2 sequence (O35433 whole entry): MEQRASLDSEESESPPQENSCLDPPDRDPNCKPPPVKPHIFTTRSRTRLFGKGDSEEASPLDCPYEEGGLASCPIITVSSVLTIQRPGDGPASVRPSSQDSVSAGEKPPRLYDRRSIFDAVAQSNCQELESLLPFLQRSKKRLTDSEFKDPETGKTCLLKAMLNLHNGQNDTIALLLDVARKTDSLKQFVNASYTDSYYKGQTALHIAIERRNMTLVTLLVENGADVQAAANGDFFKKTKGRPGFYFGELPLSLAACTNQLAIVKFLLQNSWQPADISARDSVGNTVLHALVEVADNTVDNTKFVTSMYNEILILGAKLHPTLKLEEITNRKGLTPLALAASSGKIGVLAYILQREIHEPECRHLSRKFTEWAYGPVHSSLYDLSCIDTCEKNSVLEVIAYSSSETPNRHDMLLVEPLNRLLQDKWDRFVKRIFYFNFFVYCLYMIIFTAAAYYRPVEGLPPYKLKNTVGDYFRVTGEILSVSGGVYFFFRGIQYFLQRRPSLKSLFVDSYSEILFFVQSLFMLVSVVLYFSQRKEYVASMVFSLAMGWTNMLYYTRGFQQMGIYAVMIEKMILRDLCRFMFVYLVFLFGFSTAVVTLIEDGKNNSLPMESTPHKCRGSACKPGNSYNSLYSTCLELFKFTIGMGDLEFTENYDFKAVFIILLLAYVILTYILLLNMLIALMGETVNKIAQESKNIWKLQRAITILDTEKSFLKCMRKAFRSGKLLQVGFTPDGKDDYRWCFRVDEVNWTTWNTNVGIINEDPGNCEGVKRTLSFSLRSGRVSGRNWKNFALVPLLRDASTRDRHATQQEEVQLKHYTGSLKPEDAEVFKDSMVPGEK
Description: Electrophysiological data was recorded and analyzed using pCLAMP 10 (Axon Instruments). Electrodes were fabricated from quartz tubing (Sutter Instruments) and pulled to 4-6 MΩ for whole cell recording. Electrodes were filled with internal solution (120 mM KCl, 30 mM D-glucose, 10 mM HEPES, 2 mM MgCl2, 1.1 mM EGTA, and 0.1 CaCl2 (pH 7.35, 280 mOsm). External (bath) solution contained 130 mM NaCl, 34 mM D-glucose, 10 mM HEPES, 1.5 mM CaCl2, 1.3 mM KH2PO4, and 0.5 MgSO4 (pH 7.35, 300 mOsm). Compounds were diluted in external solution and locally perfused to the recording cell using Perfusion Pencil (Automate Scientific) and controlled by a ValveLink 8.2 controller (Automate Scientific). Whole cell recordings were sampled at 10 kHz and filtered at 5 kHz. Outside-out patches were obtained using 10-15MΩ electrodes pulled from standard glass capillaries (World Precision Instruments) and fire-polished with an MF-830 micro forge (Narishige). Single channel recordings were sampled at 20 kHz. Recordings were reduced to 1 kHz and low-pass filtered at 500 Hz for display and analysis using QuB (SUNY at Buffalo).
To determine the broad-spectrum specificity of VUAA1, the inventors tested VUAA1 on another non-selective cation channel, transient receptor potential vanilloid receptor 1 (TRPV1) (Caterina, 1997; Bohlen, 2010).

[2] = tested on: AgORco-expressing neurons (CpB/C); assay: single sensillum recordings, capitate peg sensilla, CpB/C neurons; type: in vivo, Anopheles gambiae; details: delivered via glass recording electrode, adult females
Description: Single sensillum recordings were performed on 4-7 day old, non-bloodfed Anopheles gambiae females maintained on 10% sucrose and a 12/12 light dark cycle. Legs, wings and antennae were removed from cold-anesthetized females that were then restrained on double-stick tape with thread. A glass reference electrode filled with Sensillar lymph ringers (SLR)(Xu, 2005) was placed in the eye and the recording electrode filled with DMSO or VUAA1 diluted in SLR was used to puncture sensilla at their base. Responses were recorded and digitized using a Syntech IDAC-4 and analyzed with AutoSpike software (Syntech). New glass recording pipettes were used for every recording. Data was sampled at 12 kHz.
The inventors next performed single unit, extracellular electrophysiological recordings on adult female An. gambiae to determine whether VUAA1 could activate AgORco-expressing odorant receptor neurons (ORNs) in vivo. ORNs, which express AgORco and a conventional OR are enclosed within the hair-like sensilla present on olfactory tissues. […] CpA is clearly distinguished from CpB/C by its large action potential amplitude. The action potential amplitudes of CpB and CpC are much smaller and in some preparations indistinguishable from each other; as a result, the spike activity of CpB and CpC neurons were binned for data analysis. […]

In the case of CCc1ccc(NC(=O)CSc2nnc(-c3cccnc3)n2CC)cc1 [VUAA1], the whole-cell currents (DmOR83b) was “robust inward currents”, the whole-cell currents [1] was “did not elicit currents” and the “spike frequency of CpB/C neurons” value [2] was “increased the spike frequency of CpB/C neurons in a dose-dependent manner”.
